Laboratory results reported in patent US10913952B2, “Environmental stress response transcriptional regulatory network” (Salk Institute for Biological Studies, priority 2016, dated 2021).

What was measured:
[1] = test system: ChIPped TFs; test: Western blot of epitope-tagged ChIPped TFs after ABA treatment; assay type: in vivo, Arabidopsis thaliana; conditions: H3 loading control
[2] = test system: Arabidopsis thaliana; test: RNA-seq of ABA-treated etiolated seedlings (ABA time series); assay type: in vivo
Protocol: For ABA time series experiments, two biological replicates of 3-day-old etiolated, hydroponic-grown wild-type Col-0 seedlings were treated either by 10 μM (+/−)-ABA (MP biomedicals LLC, cat. #190673) dissolved in ethanol or ethanol-only mock control for 1, 4, 8, 12, 24, 36, and 60 hours. For DEX treatment, short term experiment was carried out by treating 3-day-old etiolated, DEX-inducible GFP-DIG1, GFP-DIG2 or GFP lines with 10 μM DEX (Sigma Aldrich, cat. #D9184); long term experiment was carried out by growing the same lines of plants containing 500 nM DEX for 10 days. Total RNA was isolated using the RNeasy Plant Mini Kit (Qiagen, CA, USA, Cat. #74903), and cDNA libraries were constructed using the TruSeq Stranded Total RNA LT Sample Prep Kit (Illumina, CA, USA, Cat. #15032611) according to manufacturers' instructions. Single-end reads were generated by the HiSeq 2500 Sequencing System (Illumina) and mapped to TAIR10 genome assembly using TopHat 2 (v2.0.8) (56). Mapped reads with mapping score equal to or larger than 10 were counted by HTSeq (v0.5.4) (57) and analyzed by edgeR (v3.6.2) (18) to identify differentially expressed genes using contrasts between ABA- and mock-treated samples at each time point and false discovery rate 0.01 or 0.05 as thresholds.
The genome-wide binding dynamics of a diverse collection of TFs was profiled using ChIP-seq to develop an in planta ABA transcriptional regulatory network. ABA-responsive transcripts were first surveyed in Arabidopsis thaliana, by generating strand-specific RNA-seq libraries from 3-day-old etiolated whole seedlings treated with either 10 uM (+/−)-ABA or an ethanol-containing mock for 1, 4, 8, 12, 24, 36 and 60 hours (FIG. 1A). Among 18,310 expressed genes, 3,061 are DE (FDR<0.01, Table 1) (18) for at least one time point. One hour of ABA treatment leads to moderate DE of many genes, and most transcriptional responses plateau after 8 hours (FIGS. 1B, 2). On the basis of gene expression data, we performed ChIP-seq experiments at four hours post ABA dose. TFs were selected based on responsiveness to ABA and published evidence, aiming to provide a good representation of TF families (FIG. 3; Tables 1 and 2). In general, highly expressed and responsive TFs were chosen in each representative TF family because in the context of an in planta experimental framework, the impact of these TFs on gene expression can be more effectively investigated compared with their weakly expressed homologs. All TF genes were epitope tagged by a recombineering-based approach (19), mostly with large DNA transformable artificial chromosomes, allowing the TFs to be expressed under their native promoters and genomic context (Table 2). The final dataset consisted of one hundred and twenty-two ChIP-seq experiments of 21 TFs from 11 families, including mock- and ABA-treated conditions.

[3] = 10 uM ABA treatment for 4 hours

CC1=CC(=O)CC(C)(C)C1(O)/C=C/C(C)=C\C(=O)O (racemic) [ABA, abscisic acid]
3,061: number of differentially expressed (DE) genes ([2]; 10 uM (+/-)-ABA vs ethanol mock, 1-60 hours, DE for at least one time point, FDR<0.01, among 18,310 expressed genes)
Two hundred and twenty-two: number of differentially expressed TFs ([2]; first 1, 4 or 8 hours of ABA treatment, edgeR FDR threshold 0.05)
elevated: protein abundance of most ChIPped TFs [1]
up regulated: RNA-seq evidence: ABF1 [2, 3] | RNA-seq evidence: ABF3 [2, 3] | RNA-seq evidence: ABF4 [2, 3] | RNA-seq evidence: ANAC032 [2, 3] | RNA-seq evidence: ANAC102 [2, 3] | RNA-seq evidence: DREB2A [2, 3] | RNA-seq evidence: FBH3 [2, 3] | RNA-seq evidence: GBF2 [2, 3] | RNA-seq evidence: GBF3 [2, 3] | RNA-seq evidence: HAT22 [2, 3] | RNA-seq evidence: HB6 [2, 3] | RNA-seq evidence: HSFA6A [2, 3] | RNA-seq evidence: MYB3 [2, 3] | RNA-seq evidence: MYB44 [2, 3] | RNA-seq evidence: NF-YB2 [2, 3] | RNA-seq evidence: NF-YC2 [2, 3] | RNA-seq evidence: RD26 (ANAC072) [2, 3] | RNA-seq evidence: ZAT6 [2, 3]
